≈ marks a conversion by molar mass, not a printed value.

Format in all cases: functional
In test [1] the test system is Staphylococcus aureus. The experiment in a line: Compound tested in vitro for antibacterial activity against Staphylococcus aureus(UC-76).
The test system of a further test is Enterococcus faecalis. As to the kind of experiment: Compound tested in vitro for antibacterial activity against Streptococcus faecalis(MGH-2).
The test system of test [2] is Staphylococcus aureus. As to the kind of experiment: Compound tested in vitro for antibacterial activity against Staphylococcus aureus (S18713).

On to `Nc1nc(N)c2nc(Sc3cccc(C(F)(F)F)c3)cnc2n1`, for which the MIC in the test on Staphylococcus aureus [1], with Enterococcus faecalis and in the test on Staphylococcus aureus [2] was less than 0.25 µg/mL throughout.

Take `CN(C)/C=N\c1nc(/N=C/N(C)C)nc2ncc(Sc3ccc(Cl)c(Cl)c3)nc12`: the MIC against Staphylococcus aureus [1] is greater than 25 µg/mL; against Enterococcus faecalis, less than 0.25 µg/mL; against Staphylococcus aureus [2] it was greater than 25 µg/mL.

`Nc1nc(N)c2nc(Sc3cc(Cl)c(Cl)cc3Cl)cnc2n1`: the MIC is greater than 25 µg/mL against Staphylococcus aureus [1], 5 µg/mL (≈ 13.4 µM) with Enterococcus faecalis and greater than 25 µg/mL in the test on Staphylococcus aureus [2].

On to `Nc1nc(N)c2nc(Sc3cccc4ccccc34)cnc2n1`, for which the MIC with Staphylococcus aureus [1] is less than 0.25 µg/mL; with Enterococcus faecalis, less than 0.25 µg/mL; in the test on Staphylococcus aureus [2] it was 1.5 µg/mL (≈ 4.68 µM).

As to `Nc1nc(N)c2nc(Sc3ccc(Cl)c(Cl)c3)cnc2n1`, the MIC was greater than 25 µg/mL with Staphylococcus aureus [1], 2 µg/mL (≈ 5.9 µM) against Enterococcus faecalis and greater than 25 µg/mL against Staphylococcus aureus [2].

As for `COc1ccc(Sc2cnc3nc(N)nc(N)c3n2)cc1`, the MIC is 2 µg/mL (≈ 6.66 µM) against Staphylococcus aureus [1], less than 0.25 µg/mL against Enterococcus faecalis and 2 µg/mL (≈ 6.66 µM) in the test on Staphylococcus aureus [2].

On to `Nc1nc(N)c2nc(Sc3ccc4ccccc4c3)cnc2n1`, for which the MIC with Staphylococcus aureus [1] was greater than 25 µg/mL; in the test on Enterococcus faecalis, 1.5 µg/mL (≈ 4.68 µM); in the test on Staphylococcus aureus [2], greater than 25 µg/mL.

The values are drawn from ChEMBL document CHEMBL1121672, “Folate antagonists. 19. Synthesis and antimalarial effects of 6-(arylthio)-2,4-pteridinediamines” (1981).
